Laboratory results: US20090298055A1, “PRODUCTION OF PROTEINS” (Applied Research Systems ARS Holding S.A., priority 2004, published 2009)
pIC50: −log10 of the molar value. Entries after “also recorded” stand apart in the source; their conditions may differ.

Legend:
Type in all cases: cell-based, Chinese hamster
[1] = tested on: hRFC and hRFC-HA CHO AA8 C5R0.15 transfectants; test: MTX growth inhibition assay
Procedure: (§1) Cell growth inhibition by antifolates—For antifolate cell growth inhibition, cells (10^4/well) were seeded in 24-well plates in the respective growth medium (AA8 and derivatives in RPMI+10% FCS, and CHO-S cells in CD-CHO) containing various concentrations of MTX or the lipophilic antifolates, trimeterxate (Dr. David Fry, Warner-Lambert, Parke-Davis, Detroit, Mich.) and incubated for 3 days at 37° C. Thereafter, cells were detached by trypsinization and the number of viable cells was determined using trypan blue exclusion. The 50% inhibitory concentration (IC50) is defined as the drug concentration at which cell growth is inhibited by 50% relative to untreated controls.
(§2) Cell growth assays and inhibition by antifolates—as described in Example 2, hereinabove.

[2] = tested on: parental CHO AA8 C5 cells (RFC deficient); test: MTX growth inhibition assay; details: Cricetulus griseus, 72 h, 3 days
Procedure: as §1, §2

[3] = tested on: CHO AA8 C4R0.15 and CHO AA8 C5R0.15 cells; test: F-MTX staining and competition with antifolates (flow cytometry); details: CHO AA8 C4R0.15 and C5R0.15 cells
Procedure: (§3) F-MTX staining and competition with hydrophilic and lipophilic antifolates—Cells were seeded in 60-mm Petri dish and incubated for 8 hours at 37° C. in growth medium containing 2 μM fluorescein-MTX (F-MTX). Cells were then washed with PBS and subjected to competition with MTX and its lipophilic analogue TMQ. Following 3 hours of incubation, cells were detached by trypsinization, suspended in PBS containing 1% fetal calf serum and the residual green fluorescence per cell was determined using a flow cytometer (FACSCalibur, Becton-Dickinson) at an excitation of 488 nm and emission of 525 nm. Autofluorescence of unstained cells was routinely recorded.

[4] = tested on: CHO AA8 cells; test: as above
Procedure: as §3

[5] = tested on: CHO-S R0.15 cells; test: as above; details: for concentration for complete displacement of F-MTX: 2 μM F-MTX, 3 hours competition
Procedure: as §3

[6] = tested on: CHO-S cells; test: as above; details: 2 μM F-MTX, 3 hours competition
Procedure: as §3

[7] = tested on: CHO AA8 C4 R0.15 and C5 R0.15 cell lines; test: [3H]-MTX transport assay; details: 2 μM [3H]-MTX, 3 minutes
Procedure: (§4) [^3H]-MTX transport—In order to determine the ability of the antifolate-resistant clones to take up antifolates the influx rates of [^3H]-MTX were measured and compared to the control CHO AA8 cells. Cells (2×10^7) from the mid-log phase of growth were washed three times in transport buffer consisting of HEPES-buffered saline solution (HBSS, Rothem et al., 2002) and incubated for 3 minutes at 37° C. in the presence of HBSS (1 ml suspensions) containing 2 μM [^3H]-MTX. Transport controls contained a 500-fold excess (1 mM) of unlabeled MTX. The transport of [^3H]-MTX was stopped by the addition of 10 ml of ice-cold HBSS. The cell suspension was then centrifuged for 5 minutes at 4° C. using a centrifugation speed of 500×g, following which the cell pellet was washed twice with 10 ml of ice-cold transport buffer. The final cell pellet was suspended in water and processed for scintillation counting.

[8] = tested on: CHO-S-R0.04 cells (selected in 40 nM MTX); test: [3H]-MTX transport assay; details: 2 μM [3H]-MTX, 3 minutes
Procedure: as §4

[9] = tested on: CHO-S-R0.12 cells (selected in 120 nM MTX); test: [3H]-MTX transport assay; details: 2 μM [3H]-MTX, 3 minutes
Procedure: as §4

[10] = tested on: CHO AA8 cells; test: Cell growth inhibition by lipophilic antifolates; details: Cricetulus griseus; printed after 'CHO AA8 counterpart', data not shown
Procedure: as §1

[11] = tested on: MTX-resistant CHO AA8 C4R0.15 and C5R0.15 cells; test: Cell growth inhibition by lipophilic antifolates; details: data not shown
Procedure: as §1

[12] = tested on: CHO-S R0.15 cells (RFC deficient); test: Cell growth inhibition by antifolates (trypan blue exclusion, 3 days)
Procedure: as §1

[13] = tested on: CHO-S cells; test: as above; details: Cricetulus griseus, 72 h, read-out: 50% inhibition of cell growth (IC50)
Procedure: as §1

SMILES | pIC50 ([1]; Cricetulus griseus, CHO-AA8, 72 h, hRFC and hRFC-HA transfectants, 3 days) | increase in MTX sensitivity ([1]; RFC and RFC-HA transfectants vs C5R0.15 cells) [fold] | pIC50 [2] | concentration required to completely displace F-MTX fluorescence [3] [µM] | concentration resulting in complete loss of F-MTX fluorescence [4] [nM] | concentration for complete displacement of F-MTX [5] [nM] | loss of cellular F-MTX staining ([5]; competition with 100 nM MTX) | concentration at which cells completely lost their F-MTX staining [6] [nM] | loss of MTX uptake relative to control AA8 cells [7] | loss of control CHO-S transport activity [8] [%] | loss of control CHO-S transport activity [9] [%] | pIC50 [10] | hypersensitivity compared to CHO AA8 counterpart [11] [fold] | pIC50 ([12]; Cricetulus griseus, 72 h, CHO-S R0.15 cells, read-out: 50% inhibition of cell growth (IC50)) | hypersensitivity of CHO-SR0.15 cells as compared with parental CHO cells ([12]; ratio of 50% inhibitory concentrations) [fold] | pIC50 [13] | concentration resulting in complete loss of F-MTX fluorescence [6] [nM]
CN(Cc1cnc2nc(N)nc(N)c2n1)c1ccc(C(=O)N[C@@H](CCC(=O)O)C(=O)O)cc1 [MTX, methotrexate] | 7.54 to 7.57 | 100 | ~5.52 | 3 | 30 | 1000 | did not result in any loss; also recorded: Retention of F-MTX fluorescence | 100 | 90-91% | 92.5 | 96.4 | – | – | – | – | – | –
COc1ccc(OC)c(Cc2cnc3nc(N)nc(N)c3c2C)c1 [PTX, piritrexim] | – | – | – | – | – | – | – | – | – | – | – | ~8.10 | > 3 | – | – | – | –
COc1cc(NCc2ccc3nc(N)nc(N)c3c2C)cc(OC)c1OC [TMQ, Trimetrexate] | – | – | – | – | – | 10 | – | – | – | – | – | ~8.22 | > 5 | 8.00 | 8 | ~7.40 | 10
